Experimental data taken from patent US4740503A, “Novel 5-fluoro-2'-deoxyuridine derivatives and salts thereof, process for producing the same, and antitumor agents containing the same” (priority 1984, dated 1988).
“And” between values parts separate entries of the source, which are not always exact repeats. Equal values may be shown once.

How the values were obtained:
[1] = tested on: Ehrlich carcinoma cells; test: Antitumor effect in Ehrlich carcinoma-bearing mice (tumor weight ratio to control); assay type: in vivo, ddY strain mice; conditions: i.p. once daily for 6 days, tumor weight on day 12 vs saline control
Procedure: Eight ddY strain mice (male, 5 weeks old, weight: about 25 g) per group were used, and 5×10^6 Ehrlich carcinoma cells were inoculated subcutaneously into the inguinal region of the mice. The test compound dissolved or suspended in a physiological saline solution was intraperitoneally administered to the mice once daily for 6 days from the day after the inoculation. As the control compound, FudR was used. To the control group was administered only the physiological saline solution.

[2] = Acute toxicity test (single intraperitoneal administration, LD50); conditions: mouse, in vivo, ip; single i.p. administration, male ddY mice, death judged on 14th day
Procedure: To ddY mice (male, 5 weeks old, 5 mice per group) was intraperitoneally administered the test compound dissolved or suspended in a physiological saline solution only one time. On the 14th day after the administration, the death of mouse was judged, and the LD50 value was calculated.

[3] = tested on: nucleoside phosphorylase; conditions: cited from earlier work
[4] = cited from earlier work
[5] = in vitro, compared with 5-Fu; cited from earlier work
[6] = in vivo; cited from earlier work
[7] = tested on: cells; conditions: FduMP per se; cited from earlier work
[8] = tested on: thymidylate synthetase; conditions: in cells, FduMP formed from FudR; cited from earlier work

Row | Compound | Effect (T/C (%)) ([1]; 3 μmole/kg/day) [%] | Effect (T/C (%)) ([1]; 10 μmole/kg/day) | Effect (T/C (%)) ([1]; 1 μmole/kg/day) [%] | LD50 at 336 h [2] [mg/kg] | also measured
1 | 5-Fluoro-2'-deoxy-5'-O-palmitoyl-β-uridine-3'-[2-(2H-1,2,4-triazol-1-io)ethyl]phosphate.hydrate [Test compound 10] | 66 | 34% | – | – | –
2 | CCCCCCCCCCCCCCCC(=O)OC[C@H]1O[C@@H](n2cc(F)c(=O)[nH]c2=O)C[C@@H]1OP(=O)([O-])OCC[n+]1cnc[nH]1 [compound 10] | 36 | 18% | 42 | – | –
3 | CCCCCCCCCCCCCCCC(=O)OC[C@H]1O[C@@H](n2cc(F)c(=O)[nH]c2=O)C[C@@H]1OP(=O)([O-])OCC[N+]1(C)CCOCC1 [compound 12] | 28 | – | 46 | – | –
4 | CCCCCCCC/C=C\CCCCCCCC(=O)O[C@H]1C[C@H](n2cc(F)c(=O)[nH]c2=O)O[C@@H]1COP(=O)([O-])OCC[N+](C)(C)C [Test compound 3] | – | – | – | 200 | –
5 | CCCCCCCCCCCCCCCCCC(=O)O[C@H]1C[C@H](n2cc(F)c(=O)[nH]c2=O)O[C@@H]1COP(=O)([O-])OCC[N+](C)(C)C [Test compound 2] | – | – | – | 188 | –
6 | O=c1[nH]c(=O)n([C@H]2C[C@H](O)[C@@H](CO)O2)cc1F [FudR, 5-fluoro-2'-deoxy-β-uridine] | 87 | 67% and 77% | – | – | cleavage by nucleoside phosphorylase [3]: easily cleaved by nucleoside phosphorylase; clinical toxicity [4]: high toxicity; clinical efficacy ([4]; compared with 5-Fu): only equivalent in efficacy to 5-Fu; cytocidal activity [5]: stronger cytocidal activity than 5-fluorouracil; excretion [6]: rapidly excreted in vivo; metabolism [6]: metabolized to α-fluoro-β-alanine through 5-Fu; persistency [6]: poor in persistency; Effect (T/C (%)) ([1]; 30 μmole/kg/day): 42%
7 | 5-Fluoro-2'-deoxy-3'-O-palmitoyl-β-uridine-5'-[2-(4-dimethylaminopyridinio)ethyl]phosphate.hydrate [Test compound 4] | 22 | 19% | – | – | –
8 | 5-Fluoro-2'-deoxy-5'-O-palmitoyl-β-uridine-3'-{2-[4-(4-methyl)morpholinio]ethyl}phosphate.hydrate [Test compound 12] | 10 | – | 24 | – | –
9 | CCCCCCCCCCCCCCCCCC(=O)OC[C@H]1O[C@@H](n2cc(F)c(=O)[nH]c2=O)C[C@@H]1OP(=O)([O-])OCC[N+](C)(C)C [Test compound 6] | – | – | – | 200 | –
10 | CCCCCCCCCCCCCCCC(=O)OC[C@H]1O[C@@H](n2cc(F)c(=O)[nH]c2=O)C[C@@H]1OP(=O)([O-])OCC[N+](C)(C)C [Test compound 5] | – | – | – | > 200 | –
11 | CCCCCCCCCCCCCCCC(=O)OC[C@H]1O[C@@H](n2cc(F)c(=O)[nH]c2=O)C[C@@H]1OP(=O)([O-])OCC[N+](C)(C)CCO [compound 11] | 44 | 22% | 41 | – | –
12 | 5-Fluoro-2'-deoxy-5'-O-palmitoyl-β-uridine-3'-[2-(2-hydroxyethyldimethylammonio)ethyl]phosphate.hydrate [Test compound 11] | 17 | – | 38 | – | –
13 | CCCCCCCCCCCCCCCC(=O)O[C@H]1C[C@H](n2cc(F)c(=O)[nH]c2=O)O[C@@H]1COP(=O)([O-])OCC[N+](C)(C)C [compound 1] | 47 | 19% | – | 208 | Effect (T/C (%)) ([1]; 30 μmole/kg/day): 15%
14 | 5-Fluoro-2'-deoxy-5'-O-palmitoyl-β-uridine-3'-[2-(1-pyrazolyl)ethyl]phosphate.hydrate [Example 7] | 27 | – | 40 | – | –
15 | 5-Fluoro-2'-deoxy-5'-O-hexanoyl-β-uridine-3'-(2-trimethylammonioethyl)phosphate.hydrate [Test compound 9] | 38 | 21% | – | – | –
16 | CCCCCCCCC=CCCCCCCCC(=O)OC[C@H]1O[C@@H](n2cc(F)c(=O)[nH]c2=O)C[C@@H]1OP(=O)([O-])OCC[N+](C)(C)C [compound 8] | 28 | – | 50 | 300 | –
17 | CCCCCC(=O)OC[C@H]1O[C@@H](n2cc(F)c(=O)[nH]c2=O)C[C@@H]1OP(=O)([O-])OCC[N+](C)(C)C [compound 9] | 32 | – | 50 | 500 | –
18 | O=c1[nH]c(=O)n([C@H]2C[C@H](O)[C@@H](COP(=O)(O)O)O2)cc1F [FduMP, 5-fluoro-2'-deoxyuridine-5'-monophosphate] | – | – | – | – | uptake by cells [7]: not taken up by cells; thymidylate synthetase inhibition [8]: inhibits thymidylate synthetase
19 | CCCCCCCCCCCC(=O)OC[C@H]1O[C@@H](n2cc(F)c(=O)[nH]c2=O)C[C@@H]1OP(=O)([O-])OCC[N+](C)(C)C [Test compound 7] | – | – | – | > 300 | –
